The record followed here is patent publication US6410551B1, “Tetrazole derivatives” (Byk Gulden Lomberg Chemische Fabrik GmbH, priority 1997, dated 2002).

Data set [1] has as its system PDE 4. Briefly: Inhibition of PDE 4 activity (method of Bauer and Schwabe, adapted to microtiter plates). The data set is classed as biochemical. The settings on record: inhibitory concentration as -log IC50 (mol/l). The protocol:
1. Inhibition of PDE 4 Activity
The activity test was carried out by the method of Bauer and Schwabe, which was adapted to microtiter plates (Naunyn-Schmiedeberg's Arch. Pharmacol. 1980, 311, 193-198). In this connection, the PDE reaction is carried out in the first step. In a second step, the resultant 5′-nucleotide is cleaved to give the uncharged nucleoside by a 5′-nucleotidase of the snake venom from Crotalus atrox. In the third step, the nucleoside is separated from the remaining charged substrate on ion exchange columns. The columns are eluted with 2 ml of 30 mM ammonium formate (pH 6.0) directly into minivials to which 2 ml of scintilation fluid is additionally added for counting.

The molecule `CCOc1cc2c(cc1OC)C(c1ccc(-c3nnn(CC)n3)cc1)=N[C@H]1CCCC[C@@H]21` (racemic) [Compound 2, (+/−)-cis-9-Ethoxy-8-methoxy-6-[4-(2ethyl-2H-tetrazol-5-yl)phenyl]-1,2,3,4,4a,10b-hexahydrophenanthridine] showed a melting point of 167 to 170 °C. Moreover, in data set [1], the “Inhibition of the PDE 4 activity, −log IC50” value is given as 8.78.

By melting point is commonly meant the temperature of the solid-liquid transition.
